The source of these data is ChEMBL document CHEMBL1126756, “Studies on neurokinin antagonists. 3. Design and structure-activity relationships of new branched tripeptides N alpha-(substituted L-aspartyl, L-ornithyl, or L-lysyl)-N-methyl-N-(phenylmethyl)-L-phenylalaninamides as substance P antagonists” (J Med Chem, 1993).

The target of assay [1] is Substance-P receptor (Cavia porcellus) (UniProt P30547). In words: Percent inhibition of [3H]-SP (substance P) binding to NK1 receptor relative to compound 7 (100). Also noted: concentration or dose not given beside the values. The note with it: concentration not given here.
The target is the same in assay [2]. In words: Tested for percent inhibition against [3H]-SP (substance P) binding against NK1 receptor. Particulars: concentration not given here.
The target in another assay is Substance-P receptor (Cavia porcellus, UniProt P30547). The experiment in a line: Tested for inhibition against [3H]-SP (substance P) (1 nM) binding to NK1 receptor in guinea pig lung membranes. Format: cell membranes, Membrane.
In assay [3] the target is Substance-P receptor (Cavia porcellus) (UniProt P30547). The experiment in a line: Tested for percent inhibition against [3H]SP (substance P) binding against NK1 receptor relative to compound 7 at 100 ng/mL; No inhibition.
The target is the same in assay [4]. In words: Tested for percent inhibition against [3H]-SP (substance P) binding against NK1 receptor relative to compound 5 at 100 ng/mL; No inhibition.
The target is the same in assay [5]. In words: Tested for percent inhibition against [3H]SP (substance P) binding against NK1 receptor relative to compound. The note with it: concentration not given here.
For assay [6] the target is unchanged. In words: Tested for percent inhibition against [3H]SP (substance P) binding against NK1 receptor relative to compound 5 (100). Particulars: concentration not given here.

Active and inactive are the calls of the source. The rule behind the calls is not given here.

For orientation: inhibition means the change of the read-out against control, counted positive when it falls. As usually defined, the IC50 is the midpoint of a concentration-inhibition curve.

Chain of Substance-P receptor (P30547 whole entry): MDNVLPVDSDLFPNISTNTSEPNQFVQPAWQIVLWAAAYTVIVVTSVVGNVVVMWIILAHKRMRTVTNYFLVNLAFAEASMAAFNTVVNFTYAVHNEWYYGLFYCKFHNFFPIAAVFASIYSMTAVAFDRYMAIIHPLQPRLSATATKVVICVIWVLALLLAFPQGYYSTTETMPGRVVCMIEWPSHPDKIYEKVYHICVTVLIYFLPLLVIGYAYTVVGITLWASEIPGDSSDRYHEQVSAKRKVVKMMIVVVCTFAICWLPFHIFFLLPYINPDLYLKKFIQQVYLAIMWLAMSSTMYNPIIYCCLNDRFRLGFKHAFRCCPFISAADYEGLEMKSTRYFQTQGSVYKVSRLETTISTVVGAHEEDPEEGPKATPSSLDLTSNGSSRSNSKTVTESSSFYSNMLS
Chain of Substance-P receptor (Cavia porcellus) (P30547 whole entry): as above

Regarding `CN(Cc1ccccc1)C(=O)[C@@H](Cc1ccccc1)NC(=O)C(CCCCNC(=O)N1CCOCC1)NC(=O)c1c[nH]c2ccccc12` (stereo partly drawn), the inhibition in assay [1] is 53%.

As to `CC(=O)N[C@H](C(=O)NCCCC[C@H](NC(=O)c1c[nH]c2ccccc12)C(=O)N[C@H](Cc1ccccc1)C(=O)N(C)Cc1ccccc1)[C@@H](C)O`, in assay [2], the inhibition was 100%. The IC50 on Substance-P receptor was determined as 13 nM.

For the molecule `CC(=O)NC(CCCCNC(=O)C(NC(C)=O)C(C)O)C(=O)N[C@H](Cc1ccccc1)C(=O)N(C)Cc1ccccc1` (stereo partly drawn), the inhibition result in assay [3] is “inactive”.

Regarding `CC(O)C(NC(=O)CC(NC(=O)OC(C)(C)C)C(=O)N[C@H](Cc1ccccc1)C(=O)N(C)Cc1ccccc1)C(N)=O` (stereo partly drawn), in assay [4], the inhibition entry is “inactive”.

For the molecule `CC(=O)NC(C(=O)NCCCCC(N)C(=O)N[C@H](Cc1ccccc1)C(=O)N(C)Cc1ccccc1)C(C)O` (stereo partly drawn), the inhibition result in assay [3] was “inactive”.

In the case of `CC(O)C(NC(=O)CC(N)C(=O)N[C@H](Cc1ccccc1)C(=O)N(C)Cc1ccccc1)C(N)=O` (stereo partly drawn), the inhibition result in assay [4] is “inactive”.

For `C[C@@H](O)C(NC(=O)CC(NC(=O)c1c[nH]c2ccccc12)C(=O)N[C@H](Cc1ccccc1)C(=O)N(C)Cc1ccccc1)C(N)=O` (stereo partly drawn), in assay [5], the inhibition worked out at 100%. This molecule gave an IC50 at Substance-P receptor of 23 nM.

Consider `CN(Cc1ccccc1)C(=O)[C@@H](Cc1ccccc1)NC(=O)C(CC(=O)NC(CO)C(N)=O)NC(=O)c1c[nH]c2ccccc12` (stereo partly drawn), for which the inhibition in assay [6] was determined as 100%.

`CC(=O)NC(CO)C(=O)NCCCCC(NC(=O)c1c[nH]c2ccccc12)C(=O)N[C@H](Cc1ccccc1)C(=O)N(C)Cc1ccccc1` (stereo partly drawn): in assay [1], the inhibition came to 136%.

Consider `CC(=O)NCC(=O)NCCCCC(NC(=O)c1c[nH]c2ccccc12)C(=O)N[C@H](Cc1ccccc1)C(=O)N(C)Cc1ccccc1` (stereo partly drawn), for which the inhibition in assay [1] came to 98%.

Consider `CN(Cc1ccccc1)C(=O)[C@@H](Cc1ccccc1)NC(=O)C(CC(=O)NC(CCC(N)=O)C(N)=O)NC(=O)c1c[nH]c2ccccc12` (stereo partly drawn), for which the inhibition in assay [6] was found to be 56%.

For `CC(=O)NC(C(=O)NCCCCC(NC(=O)c1cc2ccccc2[nH]1)C(=O)N[C@H](Cc1ccccc1)C(=O)N(C)Cc1ccccc1)[C@@H](C)O` (stereo partly drawn), on Substance-P receptor, the IC50 worked out at 19 nM.

For the molecule `CN(Cc1ccccc1)C(=O)[C@@H](Cc1ccccc1)NC(=O)C(CC(=O)NCC(N)=O)NC(=O)c1c[nH]c2ccccc12` (stereo partly drawn), in assay [6], the inhibition was 128%.

Regarding `CN(Cc1ccccc1)C(=O)[C@@H](Cc1ccccc1)NC(=O)C(CCCCNC(=O)C(C)(C)C)NC(=O)c1c[nH]c2ccccc12` (stereo partly drawn), the inhibition in assay [1] stood at 44%.

For `CC(=O)NC(C(=O)NCCCCC(NC(=O)OC(C)(C)C)C(=O)N[C@H](Cc1ccccc1)C(=O)N(C)Cc1ccccc1)C(C)O` (stereo partly drawn), the inhibition result in assay [3] was “inactive”.

Turning to `CN(Cc1ccccc1)C(=O)[C@@H](Cc1ccccc1)NC(=O)C(CCCCN)NC(=O)c1c[nH]c2ccccc12` (stereo partly drawn), in assay [1], the inhibition came to 91%.

Take `CC(=O)NCCCCC(NC(=O)c1c[nH]c2ccccc12)C(=O)N[C@H](Cc1ccccc1)C(=O)N(C)Cc1ccccc1` (stereo partly drawn): in assay [1], the inhibition turned out to be 87%.

With `CC(=O)NCCC(=O)NCCCCC(NC(=O)c1c[nH]c2ccccc12)C(=O)N[C@H](Cc1ccccc1)C(=O)N(C)Cc1ccccc1` (stereo partly drawn), the inhibition in assay [1] was found to be 82%.

For the molecule `CC(=O)NC(C(=O)NCCCCC(NC(=O)c1ccccc1)C(=O)N[C@H](Cc1ccccc1)C(=O)N(C)Cc1ccccc1)C(C)O` (stereo partly drawn), in assay [3], the inhibition entry is “inactive”.

On Substance-P receptor, `CC(=O)NC(C(=O)NCCCC(NC(=O)c1c[nH]c2ccccc12)C(=O)N[C@H](Cc1ccccc1)C(=O)N(C)Cc1ccccc1)[C@@H](C)O` (stereo partly drawn) gave an IC50 of 21 nM.

`CN(Cc1ccccc1)C(=O)[C@@H](Cc1ccccc1)NC(=O)C(CC(=O)NC(CCC(N)=O)C(=O)NC(C)(C)C)NC(=O)c1c[nH]c2ccccc12` (stereo partly drawn): the inhibition in assay [6] is 96%.

As to `C[C@@H](O)C(NC(=O)CC(NC(=O)c1cc2ccccc2[nH]1)C(=O)N[C@H](Cc1ccccc1)C(=O)N(C)Cc1ccccc1)C(N)=O` (stereo partly drawn), the IC50 on Substance-P receptor was found to be 54 nM.

Consider `CC(O)C(NC(=O)OC(C)(C)C)C(=O)NCCCCC(NC(=O)c1c[nH]c2ccccc12)C(=O)N[C@H](Cc1ccccc1)C(=O)N(C)Cc1ccccc1` (stereo partly drawn), for which the inhibition in assay [1] stood at 98%.

Regarding `CN(C)C(=O)NCCCCC(NC(=O)c1c[nH]c2ccccc12)C(=O)N[C@H](Cc1ccccc1)C(=O)N(C)Cc1ccccc1` (stereo partly drawn), the inhibition in assay [1] turned out to be 144%.

`CC(=O)N[C@H](C(=O)NCCCC[C@@H](NC(=O)c1c[nH]c2ccccc12)C(=O)N[C@H](Cc1ccccc1)C(=O)N(C)Cc1ccccc1)[C@@H](C)O`: the inhibition result in assay [3] is “inactive”.

Regarding `CN(Cc1ccccc1)C(=O)[C@@H](Cc1ccccc1)NC(=O)C(CCCCNC(=O)OCc1ccccc1)NC(=O)c1cc2ccccc2[nH]1` (stereo partly drawn), the inhibition in assay [1] worked out at 22%.
